Source: patent US11364209B2, “Methods and compositions for treating atopic dermatitis” (Golden Biotechnology Corporation, priority 2016, dated 2022)

Key:
[1] = Metabolite obtained from urine of rats fed with Compound 1; type: in vivo; conditions: urine samples of rats fed with Compound 1
Description: Compound 27 was determined to be 4-hydroxy-2,3-dimethoxy-6-methyl-5-(3-methyl-2-hexenoic acid)cyclohex-2-enone with molecular weight of 312 (C16 H24O6). Compound 25 which was determined as 2,3-dimethoxy-5-methyl-6-((2E,6E)-3,7,11-trimethyldodeca-2,6,10-trienyl)cyclohexa-2,5-diene-1,4-dione (molecular weight of 386.52, C24 H34 O4), was obtained from the purification process.

[2] = Outside-in animal model (OVA-sensitized mice): body weight and clinical signs; type: in vivo; conditions: oral doses
Description: BALC/c female rat in 6-8-week old is used. Each group has 6-8 rats. Blood sample was taken from the cheek of rat before sensitization. On day 1 and day 8, mice were injected intraperitoneally with 50 μg/mice of OVA-aluminum hydroxide (1:1 v/v). The mice were epicutaneously sensitized with OVA patches on day 15. OVA (100 μg) prepared in PBS was contained in a 2×2-cm patch of sterile gauze that was placed on the shaved backs of mice and secured to the skin with 3 M Tegader film followed by 3 M Coban tape to secure the gauze. After 3 days, the gauze was removed and reapplied. The procedure was repeated three times. Day 27, all the mice in the study was sacrificed and examined.
days 1 and 8 were injected OVA (sensitization), day 15 applied OVA gauze for 3 days (challenge) and rested one day. The application of OVA gauze procedure was repeated 3 times. Starting on day 14, the mice in the group were fed water.
Same procedure as group O except the mice were fed low dose (5 mg/kg BW) of exemplary compound 1.
Same procedure as group O except the mice were fed medium dose (15 mg/kg BW) of exemplary compound 1.
Same procedure as group O except the mice were fed high dose (45 mg/kg BW) of exemplary compound 1.

[3] = all treatment groups, through the study period

metabolite found in urine [1] | Compound | body weight change between all treatment groups ([2]; FIG. 1) | loss in body weight [2, 3] | observed clinical signs [2, 3]
a metabolite of compound 1 | COC1=C(OC)C(O)C(C/C=C(\C)CCC(=O)O)C(C)C1=O (stereo not shown) [Compound 27] | – | – | –
– | COC1=C(OC)C(O)C(C/C=C(\C)CC/C=C(\C)CCC=C(C)C)C(C)C1=O (stereo not shown) [Compound 1, 4-hydroxy-2,3-dimethoxy-6-methyl-5-(3,7,11-trimethyldodeca-2,6,10-trienyl)cyclohex-2-enone] | no significant difference | did not lead to any loss in body weight | did not lead to any loss in body weight or any observed clinical signs
